Test results reported in US7745646B2, “Bicyclic heteroaryl inhibitors of PDE4” (Kalypsys, Inc., priority 2006, dated 2010).

Columns and labels:
PDE4B = target: T1, PDE4B (Homo sapiens, UniProt Q07343); assay: Novel coupled PDE/AK bioluminescent assay, PDE4B inhibition; assay type: biochemical; conditions: PDE4B catalytic domain
T1 construct: hex-histidine (His6) (N); made in house
Source text: We developed a novel coupled PDE/AK bioluminescent high-throughput assay to measure the activity of phosphodiesterases. In the PDE/AK assay, the AMP produced from the hydrolysis of cAMP by phosphodiesterase is converted to adenosine diphosphate (ADP) by the phosphotransferase activity of adenylate kinase (also known as ADK or myokinase). Adenylate kinase will catalyze the conversion of 1 mole of AMP and 1 mole of ATP into 2 moles of ADP. Thus the conversion of AMP to ADP will result in the subsequent loss of ATP. The decrease in ATP concentration can be monitored as light output using luciferase in a reaction that requires ATP to produce light. The PDE/AK assay uses luciferase, which catalyzes the production of light from ATP present in the reaction mix. The amount of emitted light is inversely proportional to the level of AMP present in the reaction. Test compounds are incubated with the phosphodiesterases and phosphodiesterase inhibitors will decrease the rate of cAMP hydrolysis and decrease the subsequent production of AMP.
A novel coupled PDE/AK assay was utilized to measure the inhibitory activity of compounds on PDE isoforms. The catalytic domain of PDE4B was fused to an amino-terminus hex-histidine affinity tag and purified. PDE4B enzyme was incubated with compounds for 10 minutes. Cyclic AMP substrate, ATP and adenylate kinase were then added to the PDE enzyme mix and incubated for 45 minutes at room temperature. A commercial ATP detection assay, Perkin Elmer's easyLite ATP detection reagent, was then added to measure the relative amount of ATP present in the reaction. After 10 minute incubation, the luminescent signal was quantitated with either the Perkin Elmer Viewlux or Molecular Devices Acquest or Analyst.

[1] = test system: Lacrimal Gland Inflammation-Induced Dry Eye in Rabbits; assay: Lacrimal Gland Inflammation-Induced Dry Eye in Rabbits; assay type: in vivo; conditions: 1 percent, topical ocular BID, rabbit dry eye
Source text: A more detailed description of the assay used herein may be found in Naglehout, T J et al. 2005, “Preservation of Tear Film Integrity and Inhibition of Corneal Injury by Dexamethasone in a Rabbit Model of Lacrimal Gland Inflammation-Induced Dry Eye,” J. Ocular Pharm. Ther., 21:2. 139-148, the disclosure of which is hereby incorporated by reference as if written herein in its entirety.
Rabbits (n=4/group) were randomized into treatment groups and dosed topically BID with maxidex vehicle or test drug beginning one day prior to initiation of dry eye. Each rabbit received bilateral lacrimal gland injections of saline or ConA (300 μg/30 μl) and topical ocular dosing was continued BID throughout the study.
Desiccation was initiated 1-2 hours following lacrimal gland injection by placing conscious rabbits in the environmental chamber (10-15% humidity/72° F.). […] Absorbance of the extracted dye was determined at 660 nm.
TBUT was quantified in a separate group of treated animals. TBUT was determined by instilling 5 μL sodium fluorescein into the cul de sac and manually blinking the lids to distribute the fluorescein within the tear film. Under slit lamp observation, the eye was held open and the time whereby one or more black spots or streaks appeared in the precorneal tear film was recorded. […]

T1 sequence (Q07343 330-659 limits assumed, species assumed): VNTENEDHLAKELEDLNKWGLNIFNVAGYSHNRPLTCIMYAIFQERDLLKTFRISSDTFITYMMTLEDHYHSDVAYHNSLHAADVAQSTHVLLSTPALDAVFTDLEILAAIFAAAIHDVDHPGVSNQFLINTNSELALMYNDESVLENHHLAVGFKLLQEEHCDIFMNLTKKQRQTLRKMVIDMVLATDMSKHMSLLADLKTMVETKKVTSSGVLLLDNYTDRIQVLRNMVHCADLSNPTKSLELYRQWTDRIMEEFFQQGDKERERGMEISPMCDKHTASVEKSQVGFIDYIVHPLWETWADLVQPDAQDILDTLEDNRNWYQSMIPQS

Structure (SMILES)	IC50 (PDE4B)	Activity at Percent Concentration Tested [1]
COc1ccc2c(Nc3c(Cl)cncc3Cl)cc(=O)oc2c1OCCCO [Example 85, 4-(3,5-Dichloropyridin-4-ylamino)-8-(3-hydroxypropoxy)-7-methoxy-2H-chromen-2-one]	< 1000 nM	–
COc1ccc2c(Nc3c(Cl)cncc3Cl)cc(=O)oc2c1OCCCCOC(C)=O [Example 86, 4-(4-(3,5-Dichloropyridin-4-ylamino)-7-methoxy-2-oxo-2H-chromen-8-yloxy)butyl acetate]	< 1000 nM	–
COc1ccc2c(Nc3c(Cl)cncc3Cl)cc(=O)oc2c1OCCCCCC(=O)O [Example 44, 6-(4-(3,5-Dichloropyridin-4-ylamino)-7-methoxy-2-oxo-2H-chromen-8-yloxy)hexanoic acid]	< 1000 nM	–
COc1ccc2c(Nc3c(Cl)cncc3Cl)cc(=O)oc2c1OCCCCCNC(=N)N [Example 83, 1-(5-(4-(3,5-Dichloropyridin-4-ylamino)-7-methoxy-2-oxo-2H-chromen-8-yloxy)pentyl)guanidine]	< 1000 nM	–
COc1ccc2c(Nc3c(Cl)cncc3Cl)cc(=O)oc2c1OC(C)C [Example 21, 4-(3,5-Dichloropyridin-4-ylamino)-8-isopropoxy-7-methoxy-2H-chromen-2-one]	< 1000 nM	–
CCOC(=O)CNC(=O)CCCCCOc1c(OC)ccc2c(Nc3c(Cl)cncc3Cl)cc(=O)oc12 [Example 94, Ethyl 2-(6-(4-(3,5-dichloropyridin-4-ylamino)-7-methoxy-2-oxo-2H-chromen-8-yloxy)hexanamido)acetate]	< 1000 nM	–
COc1ccc2c(Nc3c(Cl)cncc3Cl)cc(=O)oc2c1O[C@@H]1O[C@H](CO)[C@@H](O)[C@H](O)[C@H]1O [Example 77, 4-(3,5-Dichloropyridin-4-ylamino)-7-methoxy-8-((2S,3R,4S,5S,6R)-3,4,5-trihydroxy-6-(hydroxymethyl)tetrahydro-2H-pyran-2-yloxy)-2H-chromen-2-one]	> 1000 nM	–
COc1ccc2c(Nc3c(Cl)cncc3Cl)cc(=O)oc2c1OCCCC(=O)O [Example 42, 4-(4-(3,5-Dichloropyridin-4-ylamino)-7-methoxy-2-oxo-2H-chromen-8-yloxy)butanoic acid]	< 1000 nM	–
CCCCN(C)CCCCCOc1c(OC)ccc2c(Nc3c(Cl)cncc3Cl)cc(=O)oc12 [Example 90, 8-(5-(Butyl(methyl)amino)pentyloxy)-4-(3,5-dichloropyridin-4-ylamino)-7-methoxy-2H-chromen-2-one]	< 1000 nM	–
COc1ccc2c(Nc3c(Cl)cncc3Cl)cc(=O)oc2c1OCCOCCN(C)C [Example 69, 4-(3,5-Dichloropyridin-4-ylamino)-8-(2-(2-(dimethylamino)ethoxy)ethoxy)-7-methoxy-2H-chromen-2-one]	< 1000 nM	–
COc1ccc2c(Nc3c(Cl)cncc3Cl)cc(=O)oc2c1OCCCCCBr [Example 28, 8-(5-Bromopentyloxy)-4-(3,5-dichloropyridin-4-ylamino)-7-methoxy-2H-chromen-2-one]	< 1000 nM	–
COc1ccc2c(Nc3c(Cl)cncc3Cl)c(C)c(=O)oc2c1OC1CCCC1 [Example 13, 8-(Cyclopentyloxy)-4-(3,5-dichloropyridin-4-ylamino)-7-methoxy-3-methyl-2H-chromen-2-one]	< 1000 nM	–
C=C(OCC)c1cncc(Cl)c1Nc1cc(=O)oc2c(OC3CCCC3)c(OC)ccc12 [Example 15, 4-(3-Chloro-5-(1-ethoxyvinyl)pyridin-4-ylamino)-8-(cyclopentyloxy)-7-methoxy-2H-chromen-2-one]	< 1000 nM	–
COC(=O)[C@H](C)NC(=O)CCCCCOc1c(OC)ccc2c(Nc3c(Cl)cncc3Cl)cc(=O)oc12 [Example 95, (S)-Methyl 2-(6-(4-(3,5-dichloropyridin-4-ylamino)-7-methoxy-2-oxo-2H-chromen-8-yloxy)hexanamido)propanoate]	< 1000 nM	–
COc1ccc2c(Nc3c(Cl)cncc3Cl)cc(=O)oc2c1OCCC1CCCCC1 [Example 47, 8-(2-Cyclohexylethoxy)-4-(3,5-dichloropyridin-4-ylamino)-7-methoxy-2H-chromen-2-one]	< 1000 nM	–
COc1ccc2c(Nc3c(Cl)cncc3Cl)cc(=O)oc2c1OCCCCCn1cncn1 [Example 103, 8-(5-(1H-1,2,4-Triazol-1-yl)pentyloxy)-4-(3,5-dichloropyridin-4-ylamino)-7-methoxy-2H-chromen-2-one]	< 1000 nM	–
COc1ccc2c(Nc3c(Cl)cncc3Cl)cc(=O)oc2c1OCCCCCN(C)CCN(C)C [Example 93, 4-(3,5-Dichloropyridin-4-ylamino)-8-(5-((2-(dimethylamino)ethyl)(methyl)amino)pentyloxy)-7-methoxy-2H-chromen-2-one]	< 1000 nM	–

Now from value to molecule, other results behind:

IC50 (PDE4B)	Structure (SMILES)	Activity at Percent Concentration Tested [1]
< 1000 nM	COc1ccc2c(Nc3c(Cl)cncc3Cl)cc(=O)oc2c1OCC1CC1 [Example 5, 8-(Cyclopropylmethoxy)-4-(3,5-dichloropyridin-4-ylamino)-7-methoxy-2H-chromen-2-one]	Inactive
< 1000 nM	COc1ccc2c(Nc3c(Cl)cncc3Cl)cc(=O)oc2c1OC1CCCC1 [Example 3, 8-(Cyclopentyloxy)-4-(3,5-dichloropyridin-4-ylamino)-7-methoxy-2H-chromen-2-one]	Inactive
< 1000 nM	COc1ccc2c(Nc3c(Cl)cncc3Cl)cc(=O)oc2c1OCCCCCN1CCCC1 [Example 55, 4-(3,5-Dichloropyridin-4-ylamino)-7-methoxy-8-(5-(pyrrolidin-1-yl)pentyloxy)-2H-chromen-2-one]	–
< 1000 nM	COc1ccc2c(Nc3c(Cl)cncc3Cl)cc(=O)oc2c1OC [Example 64, 4-(3,5-Dichloropyridin-4-ylamino)-7,8-dimethoxy-2H-chromen-2-one]	–
< 1000 nM	COc1ccc2c(Nc3c(Cl)cncc3Cl)cc(=O)oc2c1OCCCCCn1ccnn1 [Example 98, 8-(5-(1H-1,2,3-Triazol-1-yl)pentyloxy)-4-(3,5-dichloropyridin-4-ylamino)-7-methoxy-2H-chromen-2-one]	–
< 1000 nM	COC(=O)COc1c(OC)ccc2c(Nc3c(Cl)cncc3Cl)cc(=O)oc12 [Example 45, Methyl 2-(4-(3,5-dichloropyridin-4-ylamino)-7-methoxy-2-oxo-2H-chromen-8-yloxy)acetate]	–
< 1000 nM	COc1ccc2c(Nc3c(Cl)cncc3Cl)cc(=O)oc2c1O [Example 29, 4-(3,5-Dichloropyridin-4-ylamino)-8-hydroxy-7-methoxy-2H-chromen-2-one]	–
< 1000 nM	COC(=O)CCCCCOc1c(OC)ccc2c(Nc3c(Cl)cncc3Cl)cc(=O)oc12 [Example 58, Methyl 6-(4-(3,5-dichloropyridin-4-ylamino)-7-methoxy-2-oxo-2H-chromen-8-yloxy)hexanoate]	–
< 1000 nM	COc1ccc2c(Nc3c(Cl)cncc3Cl)cc(=O)oc2c1OCc1cccc([N+](=O)[O-])c1 [Example 34, 4-(3,5-Dichloropyridin-4-ylamino)-7-methoxy-8-(3-nitrobenzyloxy)-2H-chromen-2-one]	–
